Results as given in article PMC12910644 (Journal of Medicinal Chemistry, 2026).

How the values were obtained:
CK1γ1 [1] = target: T1, CK1γ1 (Homo sapiens, UniProt Q9HCP0); assay: CK1γ1 NanoBRET assay with tracer 23, intact cells; type: cell-based; settings: intact HEK293 cells, N = 1
CK1γ2 [2] = target: T2, CK1γ2 (Homo sapiens, UniProt P78368); assay: CK1γ2 NanoBRET assay with tracer 23, intact cells; type: cell-based; settings: intact HEK293 cells, N = 1
CK1γ1 [3] = target: T1, CK1γ1; assay: Eurofins radiometric enzymatic assay CK1γ1; type: biochemical
CK1γ2 [4] = target: T2, CK1γ2; assay: Eurofins radiometric enzymatic assay CK1γ2; type: biochemical
CK1γ3 [5] = target: T3, CK1γ3 (Homo sapiens, UniProt Q9Y6M4); assay: Eurofins radiometric enzymatic assay CK1γ3; type: biochemical; settings: read-out: enzymatic IC50 CK1γ3, ATP at Km, N = 1
Target sequence in this assay (Q9Y6M4 33-362): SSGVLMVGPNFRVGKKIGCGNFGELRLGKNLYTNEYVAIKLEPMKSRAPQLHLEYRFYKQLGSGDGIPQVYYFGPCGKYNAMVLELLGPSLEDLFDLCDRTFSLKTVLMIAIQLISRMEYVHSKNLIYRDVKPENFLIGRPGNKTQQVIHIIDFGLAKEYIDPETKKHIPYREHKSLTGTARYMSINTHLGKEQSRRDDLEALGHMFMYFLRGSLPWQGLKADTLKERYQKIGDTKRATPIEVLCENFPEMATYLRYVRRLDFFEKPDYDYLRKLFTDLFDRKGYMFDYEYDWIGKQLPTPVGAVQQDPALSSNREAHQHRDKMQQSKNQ

CK1γ3 [6] = target: T3, CK1γ3; assay: CK1γ3 NanoBRET assay with tracer 23, intact cells; type: cell-based; settings: intact HEK293 cells, N = 1
Target sequence in this assay (Q9Y6M4 whole entry): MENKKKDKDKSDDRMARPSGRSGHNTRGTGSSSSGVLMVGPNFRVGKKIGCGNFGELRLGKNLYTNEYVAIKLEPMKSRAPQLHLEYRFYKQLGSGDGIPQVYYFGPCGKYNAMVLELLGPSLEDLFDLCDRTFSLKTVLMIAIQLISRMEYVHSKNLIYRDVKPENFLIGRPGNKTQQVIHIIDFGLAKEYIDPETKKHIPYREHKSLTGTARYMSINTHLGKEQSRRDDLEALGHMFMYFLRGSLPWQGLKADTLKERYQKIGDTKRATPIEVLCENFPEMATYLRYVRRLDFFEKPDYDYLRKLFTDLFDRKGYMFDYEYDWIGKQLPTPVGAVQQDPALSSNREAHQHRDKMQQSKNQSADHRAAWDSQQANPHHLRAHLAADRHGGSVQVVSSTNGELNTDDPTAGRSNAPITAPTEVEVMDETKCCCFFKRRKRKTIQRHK

[7] = system: LRP6 phosphorylation at T1479; assay: Western blot of LRP6 phosphorylation in HEK293 cells; type: cell-based, human; settings: 5 μM, WNT3A and R-Spondin-1, 2 h
panel of 192 kinases [8] = target: panel of 192 kinases (Homo sapiens, UniProt P78368); assay: K192 NanoBRET kinase selectivity panel; type: cell-based; settings: read-out: %Fractional Occupancy
panel of 192 kinases (Homo sapiens, UniProt P78368), sequence (P78368 whole entry): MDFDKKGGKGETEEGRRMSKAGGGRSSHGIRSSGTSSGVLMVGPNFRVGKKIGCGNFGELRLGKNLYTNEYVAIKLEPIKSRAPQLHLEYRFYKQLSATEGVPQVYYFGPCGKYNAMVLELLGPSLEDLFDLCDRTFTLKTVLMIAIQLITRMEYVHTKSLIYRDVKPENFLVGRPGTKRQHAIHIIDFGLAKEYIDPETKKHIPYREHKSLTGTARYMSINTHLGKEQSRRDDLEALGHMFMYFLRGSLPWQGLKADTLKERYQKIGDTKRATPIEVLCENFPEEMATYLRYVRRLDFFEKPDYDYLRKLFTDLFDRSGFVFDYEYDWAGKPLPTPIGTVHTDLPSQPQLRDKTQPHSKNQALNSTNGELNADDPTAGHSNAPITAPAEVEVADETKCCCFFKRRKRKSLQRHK

MOK = target: T4, MOK (Homo sapiens, UniProt Q9UQ07); assay: MOK NanoBRET assay; type: cell-based
T4 sequence (Q9UQ07 1-419): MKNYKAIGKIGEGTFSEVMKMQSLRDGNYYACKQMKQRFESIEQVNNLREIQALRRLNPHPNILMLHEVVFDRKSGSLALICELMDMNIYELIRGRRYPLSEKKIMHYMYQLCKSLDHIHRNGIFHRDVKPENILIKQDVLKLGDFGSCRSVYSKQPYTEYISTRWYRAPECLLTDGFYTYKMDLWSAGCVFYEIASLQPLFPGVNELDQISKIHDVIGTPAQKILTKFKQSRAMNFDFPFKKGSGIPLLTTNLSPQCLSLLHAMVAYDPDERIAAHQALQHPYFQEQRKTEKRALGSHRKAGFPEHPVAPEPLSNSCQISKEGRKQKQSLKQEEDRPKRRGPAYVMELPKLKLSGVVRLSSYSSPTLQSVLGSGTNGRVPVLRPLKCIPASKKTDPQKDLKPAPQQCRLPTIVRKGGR

HEK293 cells = assay: CellTiter-Glo HEK293 cell viability assay; type: cell-based, human; settings: 10 μM for 24 or 48 h
Dynamic light scattering = type: physicochemical; settings: HBS buffer, 2% DMSO, 25 °C
panel of 192 kinases [9] = target: panel of 192 kinases (Homo sapiens, UniProt Q9HAZ1); assay: K192 NanoBRET kinase selectivity panel; type: cell-based; settings: read-out: %Fractional Occupancy
panel of 192 kinases (Homo sapiens, UniProt Q9HAZ1), sequence (Q9HAZ1 whole entry): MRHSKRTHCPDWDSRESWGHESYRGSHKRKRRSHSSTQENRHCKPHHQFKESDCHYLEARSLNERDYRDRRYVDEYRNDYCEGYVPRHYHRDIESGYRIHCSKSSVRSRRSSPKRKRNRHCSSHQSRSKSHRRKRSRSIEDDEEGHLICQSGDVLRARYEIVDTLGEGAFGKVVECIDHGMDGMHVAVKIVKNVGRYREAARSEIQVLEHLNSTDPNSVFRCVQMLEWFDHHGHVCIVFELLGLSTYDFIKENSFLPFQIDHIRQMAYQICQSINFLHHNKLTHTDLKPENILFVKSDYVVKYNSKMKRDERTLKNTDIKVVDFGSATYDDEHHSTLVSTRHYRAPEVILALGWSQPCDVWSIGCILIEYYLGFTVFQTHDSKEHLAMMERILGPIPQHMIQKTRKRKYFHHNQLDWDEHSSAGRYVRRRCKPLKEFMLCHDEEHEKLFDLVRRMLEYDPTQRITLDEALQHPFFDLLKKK

CLK4 = CLK4 (Homo sapiens, UniProt Q9HAZ1); assay: CLK4 NanoBRET assay
CLK4, sequence (Q9HAZ1 whole entry): as above

[10] = read-out: NB IC50 CK1γ1, tracer 23
[11] = read-out: NB IC50 CK1γ2, tracer 23
[12] = read-out: NB IC50 CK1γ3, tracer 23

T2 sequence (P78368 whole entry): as the sequence (P78368 whole entry) above
T1 sequence (Q9HCP0 whole entry): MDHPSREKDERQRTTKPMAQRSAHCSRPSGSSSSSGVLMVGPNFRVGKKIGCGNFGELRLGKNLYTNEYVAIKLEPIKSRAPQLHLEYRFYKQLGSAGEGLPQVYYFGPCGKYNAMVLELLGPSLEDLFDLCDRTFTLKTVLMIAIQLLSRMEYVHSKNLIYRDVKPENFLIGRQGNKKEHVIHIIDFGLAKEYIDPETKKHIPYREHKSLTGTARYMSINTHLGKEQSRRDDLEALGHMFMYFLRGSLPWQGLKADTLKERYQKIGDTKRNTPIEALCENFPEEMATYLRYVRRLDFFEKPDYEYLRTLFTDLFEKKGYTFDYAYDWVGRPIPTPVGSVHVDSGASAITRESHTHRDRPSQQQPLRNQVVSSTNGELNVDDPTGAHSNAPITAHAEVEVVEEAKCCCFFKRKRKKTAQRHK

| Compound | IC50 (CK1γ1 [1]; NB IC50 CK1γ1, tracer 23) | IC50 (CK1γ2 [2]; NB IC50 CK1γ2, tracer 23) | IC50 (CK1γ1 [3]) | IC50 (CK1γ2 [4]) | IC50 (CK1γ3 [5]) | IC50 (CK1γ3 [6]; NB IC50 CK1γ3, tracer 23) | further results |
| --- | --- | --- | --- | --- | --- | --- | --- |
| N#Cc1ccc2nc(Nc3ccc(N4CCOCC4)cc3)[nH]c2c1 [Compound 4, 2-((4-morpholinophenyl)amino)-1H-benzo[d]imidazole-6-carbonitrile] | 910 nM | 920 nM | 430 nM | 81 nM | 1300 nM | – | – |
| COc1cc(N2CCOCC2)ccc1Nc1nc2ccc(C#N)cc2[nH]1 [Compound 5, 2-((2-Methoxy-4-morpholinophenyl)amino)-1H-benzo[d]imidazole-6-carbonitrile] | > 30000 nM | > 30000 nM | 5520 nM | 4170 nM | 2750 nM | > 30000 nM | LRP6 phosphorylation at T1479 [7]: did not occur |
| N#Cc1ccc2nc(Nc3ccc(N4CCOCC4)c(F)c3)[nH]c2c1 [Compound 9, 2-((3-Fluoro-4-morpholinophenyl)amino)-1H-benzo[d]imidazole-6-carbonitrile] | 980 nM | 770 nM | 212 nM | 34 nM | 656 nM | – | – |
| N#Cc1ccc2nc(Nc3ccc(N4CCOCC4)c(C(F)(F)F)c3)[nH]c2c1 [Compound 10, 2-((4-Morpholino-3-(trifluoromethyl)phenyl)amino)-1H-benzo[d]imidazole-6-carbonitrile] | 1400 nM | 780 nM | 120 nM | 34 nM | – | 1350 nM | – |
| N#Cc1ccc2nc(Nc3cc(F)c(N4CCOCC4)c(F)c3)[nH]c2c1 [Compound 11, 2-((3,5-Difluoro-4-morpholinophenyl)amino)-1H-benzo[d]imidazole-6-carbonitrile] | 920 nM | – | 121 nM | 25 nM | 976 nM | 3300 nM | – |
| N#Cc1ccc2nc(Nc3ccc(N4CCOCC4)c(Cl)c3)[nH]c2c1 [Compound 14, 2-((3-Chloro-4-morpholinophenyl)amino)-1H-benzo[d]imidazole-6-carbonitrile] | 180 nM | 180 nM | – | – | 958 nM | – | receptor occupancy at 1 µM (panel of 192 kinases [8]): 74%; IC50 (MOK): > 5000 nM; HEK293 cell viability (CellTiter-Glo) (HEK293 cells): did not impact cell viability; aqueous solubility in DLS (Dynamic light scattering): good aqueous solubility |
| N#Cc1ccc2nc(Nc3ccc(N4CCOCC4)c(Br)c3)[nH]c2c1 [Compound 15, 2-((3-Bromo-4-morpholinophenyl)amino)-1H-benzo[d]imidazole-6-carbonitrile] | 580 nM | 110 nM | – | – | 700 nM | 110 nM | – |
| N#Cc1ccc2[nH]c(Nc3ccc(N4CCCCC4)c(Cl)c3)nc2c1 [Compound 20, 2-((3-Chloro-4-(piperidin-1-yl)phenyl)amino)-1H-benzo[d]imidazole-5-carbonitrile] | 380 nM | 250 nM | – | – | 475 nM | 300 nM | – |
| CN1CCN(c2ccc(Nc3nc4ccc(C#N)cc4[nH]3)cc2Cl)CC1 [Compound 21, 2-((3-Chloro-4-(4-methylpiperazin-1-yl)phenyl)amino)-1H-benzo[d]imidazole-6-carbonitrile] | 170 nM | 220 nM | – | – | 431 nM | 180 nM | receptor occupancy at 1 µM (panel of 192 kinases [9]): 49%; IC50 (CLK4): 570 nM |
| Cc1ccc2nc(NC(=O)CSc3nc4c(c(=O)n3-c3ccc(F)cc3)SCC4)sc2c1 [IWP-3, reference compound] | – | – | – | – | – | – | IC50 (CK1γ1 [1]; [10]): > 30000 nM; IC50 (CK1γ2 [2]; [11]): > 30000 nM; IC50 (CK1γ3 [6]; [12]): > 30000 nM |
| Nc1nccc(-c2c(-c3ccc(F)cc3)ncn2C2CCCCC2)n1 [PF-670462, reference compound] | – | – | – | – | – | – | IC50 (CK1γ1 [1]; [10]): > 30000 nM; IC50 (CK1γ2 [2]; [11]): > 30000 nM; IC50 (CK1γ3 [6]; [12]): > 30000 nM |
